From US9404086B2, “Method for cell differentiation” (GE HEALTHCARE UK LIMITED, priority 2014, dated 2016) come the findings set out here.

Type in all cases: cell-based, human
Assay [1] deals with hESC. The assay can be described thus: qRT-PCR analysis of differentiation markers at day 4 of DE differentiation. Here is the method:
Definitive endoderm formation: hESC were passaged onto the appropriate culture flasks or plates at 0.6×10^5 cells/cm^2 and cultured for 2 days. To initiate definitive endoderm differentiation hESC were washed once with PBS and cultured in RMPI 1640 medium (Life Technologies) supplemented with 100 ng/ml of Activin A (R&D Systems) and 0.25 to 2% of DMSO (Sigma). FBS (0.2%) was added after first 24 hours and cells were cultured for four days with media changed daily. Isolation of total cellular RNA was performed using an illustra RNAspin Mini RNA Isolation Kit (GE Healthcare) and the concentration of RNA in each sample measured on a NanoDrop 1000 spectrophotometer. 1 μg of extracted total RNA was reverse transcribed using High Capacity cDNA Reverse Transcription Kit (Applied Biosystems). TaqMan quantitative PCR was performed using unlabelled PCR primers and FAM-based probes (Applied Biosystems by Life Technologies) in conjunction with TaqMan Universal PCR Master Mix, No AmpErase UNG (Applied Biosystems). Concentrated TaqMan PCR Master Mix (2×) was combined with water and cDNA. The final concentration of Master Mix was achieved by addition of appropriate concentrations of primers/FAM probes diluted in water. Reactions were carried out on a 7900HT Fast Real-Time PCR System (Applied Biosystems). qRT-PCR cycling conditions were: 95° C. for 10 min, and subsequently 45 cycles of 95° C. for 10 sec and 60° C. for 1 min. Each sample was run in triplicate with GAPDH as a reference gene. Analysis of results was performed in SDS Software for the 7900HT Fast Real-Time PCR System. Relative quantification was calculated against GAPDH and B-Actin housekeeping genes and standard derivations report n=3 replicates from each sample.
Background: In qPCR the cycle at which signal appears reflects the starting amount.

In assay [2] the test system is hESC. The assay can be described thus: Flow cytometry analysis of differentiation markers at day 4 of DE differentiation. The note with it: for differentiation to DE: supplementation of Activin A, compared with Activin A and DMSO. Here is the method: Definitive endoderm formation: hESC were passaged onto the appropriate culture flasks or plates at 0.6×10^5 cells/cm^2 and cultured for 2 days. To initiate definitive endoderm differentiation hESC were washed once with PBS and cultured in RMPI 1640 medium (Life Technologies) supplemented with 100 ng/ml of Activin A (R&D Systems) and 0.25 to 2% of DMSO (Sigma). FBS (0.2%) was added after first 24 hours and cells were cultured for four days with media changed daily.
Cells cultured in 6 well plates were washed twice in PBS and treated with 0.25% trypsin-EDTA (Life Technologies) to obtain single cell suspensions. Trypsin was inactivated after 5 min of incubation by adding medium containing 10% FBS. Cells were counted, centrifuged at 300 g for 5 min, washed twice with PBS and subsequently fixed in 2% paraformaldehyde (USB). Following 15 min incubation at room temperature cells were washed in PBS and perm/wash buffer (PWB) (BD) and subsequently resuspended at 4×10^6 cells/ml in perm/wash buffer supplemented with 0.1 mg/ml human IgG (Sigma) and 10% serum from the species of secondary antibody (Life Technologies). Cells were incubated for 30 min at 4° C. and then 50 μl aliquots (2×10^5 cells) were transferred to individual 5 ml polystyrene round-bottom FACS assay tubes. For double staining of cells with OCT4 and SOX17, cells were stained in perm/wash buffer first with mouse anti-OCT4 (Cell Signalling) and incubated for 1 h at room temperature, following by two washes with PBS and incubation in perm/wash buffer with goat anti-mouse-FITC (Molecular Probes) and goat anti-SOX17-APC (R&D Systems). Following 1 h incubation at 4° C., samples were washed twice and resuspended in 0.2% FBS in PBS in a final volume of […]. Separate staining for OCT4 and SOX17 was performed analogously. Cells were analysed on a BD FACSCalibur flow cytometer and data analysed using CellQuest software.
A general note: A flow cytometer gives signals particle by particle.

Assay [3] concerns hESC. Description: Differentiation of hESC-derived DE towards hepatic like cells (AFP day 12, ALB day 28). The note with it: day 28 (hepatic like cells), with increasing concentrations of DMSO during DE stage. Here is the method: Definitive endoderm formation: hESC were passaged onto the appropriate culture flasks or plates at 0.6×10^5 cells/cm^2 and cultured for 2 days. To initiate definitive endoderm differentiation hESC were washed once with PBS and cultured in RMPI 1640 medium (Life Technologies) supplemented with 100 ng/ml of Activin A (R&D Systems) and 0.25 to 2% of DMSO (Sigma). FBS (0.2%) was added after first 24 hours and cells were cultured for four days with media changed daily. Hepatic specification: hESC-derived definitive endoderm cells were washed once with PBS and cultured in KO-DMEM medium and 2% KOSR supplemented with 1 mM L-glutamine, NEAA (all from Life Technologies), B-Mercaptoethanol (Sigma), 30 ng/ml BMP2, 10 ng/ml FGF4, 0.5% DMSO for 5 days with BMP4. […] Isolation of total cellular RNA was performed using an illustra RNAspin Mini RNA Isolation Kit (GE Healthcare) and the concentration of RNA in each sample measured on a NanoDrop 1000 spectrophotometer. […] TaqMan quantitative PCR was performed using unlabelled PCR primers and FAM-based probes (Applied Biosystems by Life Technologies) in conjunction with TaqMan Universal PCR Master Mix, No AmpErase UNG (Applied Biosystems). […] Relative quantification was calculated against GAPDH and B-Actin housekeeping genes and standard derivations report n=3 replicates from each sample.

In assay [4] the test system is hESC. Description: Immunofluorescence analysis of differentiation markers at day 4 of DE differentiation. The protocol:
Definitive endoderm formation: hESC were passaged onto the appropriate culture flasks or plates at 0.6×10^5 cells/cm^2 and cultured for 2 days. To initiate definitive endoderm differentiation hESC were washed once with PBS and cultured in RMPI 1640 medium (Life Technologies) supplemented with 100 ng/ml of Activin A (R&D Systems) and 0.25 to 2% of DMSO (Sigma). FBS (0.2%) was added after first 24 hours and cells were cultured for four days with media changed daily. For detection of stage-specific markers, cells were grown and differentiated in 96 well plates (uClear black plate with clear flat bottom, Greiner). Cells were rinsed twice with PBS and fixed in 4% paraformaldehyde (USB) for 15 min at room temperature and then washed twice with PBS and blocked for 30 min at RT in 1% BSA (Life Technologies) and 0.1 mg/ml human IgG (Sigma) in perm/wash buffer (BD). Cells were subsequently stained for 2 hours at RT or overnight at 4° C. with primary rabbit anti-OCT4 (Cell Signaling), mouse and anti-SOX17 (Abcam) antibodies diluted in perm/wash buffer. Cells were subsequently washed several times with perm/wash buffer and incubated at 4° C. in the dark with goat anti-mouse-FITC and chicken anti-rabbit-Cy5 (Molecular probes) diluted 1:400 in perm/wash buffer. […]

Where [5] appears, read: increasing concentrations of DMSO with Activin A, day 4.
Setting [6] is: 0.5% and 1% DMSO added to Activin A containing medium, day 4, relative to control cells treated with Activin A alone.

Consider `C[S+](C)[O-]` [DMSO, dimethyl sulfoxide], for which, in the assay with hESC [1] (0.5% to 0.6% DMSO added to Activin A-based medium during definitive endoderm derivation), the “expression of pluripotency genes” value is listed as “rapid down regulation”. In the assay on hESC [1] (DMSO method day 4 (KCGE D4) versus Hay D5), the “DE differentiation compared with established prior art method (Hay et al)” value is on record as “significant improvement”. For the same molecule, in the assay with hESC [1] (setting [5]), the CXCR4 expression result is recorded as “up regulation”, the GATA4 expression entry is given as “up regulation”, the OCT4 expression result is given as “significant dose dependent decrease” and the SOX17 expression entry is listed as “up regulation”. Also, in the assay with hESC [2] (setting [6]), the OCT4 expressing cells result was “decrease” and the SOX17 expressing cells result is “increase”. Further, in the assay with hESC [2] (increasing concentrations of DMSO with Activin A, day 4, flow cytometry confirmation), the OCT4 expression entry is recorded as “down regulation”. Moreover, in the assay on hESC [3], the ALB expression entry is “increased”. Also, the OCT4 expression entry with hESC [4] (increasing concentrations of DMSO from 0% to 2% with Activin A) was “down regulation”. Further, the “DMSO concentration at which SOX 17 staining was maximum” value in the assay with hESC [4] (with Activin A) is reported as 0.6%.

With “FGF2: growth factor reported to aid in DE differentiation, used in conjunction with Activin A”, the “differentiation to DE” value with hESC [2] is on record as “inferior”.

B1: Wnt3a: growth factor reported to aid in DE differentiation, used in conjunction with Activin A (protein, UniProt P56704 19-352, looked up)
Protein Wnt-3a: SYPIWWSLAVGPQYSSLGSQPILCASIPGLVPKQLRFCRNYVEIMPSVAEGIKIGIQECQHQFRGRRWNCTTVHDSLAIFGPVLDKATRESAFVHAIASAGVAFAVTRSCAEGTAAICGCSSRHQGSPGKGWKWGGCSEDIEFGGMVSREFADARENRPDARSAMNRHNNEAGRQAIASHMHLKCKCHGLSGSCEVKTCWWSQPDFRAIGDFLKDKYDSASEMVVEKHRESRGWVETLRPRYTYFKVPTERDLVYYEASPNFCEPNPETGSFGTRDRTCNVSSHGIDGCDLLCCGRGHNARAERRREKCRCVFHWCCYVSCQECTRVYDVHTCK
As to B1, the “differentiation to DE” value in the assay with hESC [2] was “inferior”.
